Active and inactive are the calls of the source. The rule behind the calls is not given here.
Experiments:
HCT-116 [1] = test: Cytotoxicity against human p53-positive HCT116 cells assessed as cell viability up to 100 uM after 24 hrs by MTT assay; format: functional, cell-based
HL-60 [2] = test: Cytotoxicity against human HL60 cells assessed as cell survival at 200 uM after 72 hrs by MTT assay relative to control; format: functional; details: HL-60, 72 h, read-out: Survival
HL-60 [3] = test: Cytotoxicity against human HL60 cells assessed as cell survival at 40 uM after 72 hrs by MTT assay relative to control; format: functional; details: HL-60, 72 h, read-out: Survival
Steinernema feltiae = test: Nematicidal activity against Steinernema feltiae assessed as viability up to 200 uM after 48 hrs by microscopic analysis; format: functional
Aromatase = target: T1, Aromatase (Homo sapiens, UniProt P11511); test: Inhibition of human placental aromatase
T1 sequence (P11511 whole entry): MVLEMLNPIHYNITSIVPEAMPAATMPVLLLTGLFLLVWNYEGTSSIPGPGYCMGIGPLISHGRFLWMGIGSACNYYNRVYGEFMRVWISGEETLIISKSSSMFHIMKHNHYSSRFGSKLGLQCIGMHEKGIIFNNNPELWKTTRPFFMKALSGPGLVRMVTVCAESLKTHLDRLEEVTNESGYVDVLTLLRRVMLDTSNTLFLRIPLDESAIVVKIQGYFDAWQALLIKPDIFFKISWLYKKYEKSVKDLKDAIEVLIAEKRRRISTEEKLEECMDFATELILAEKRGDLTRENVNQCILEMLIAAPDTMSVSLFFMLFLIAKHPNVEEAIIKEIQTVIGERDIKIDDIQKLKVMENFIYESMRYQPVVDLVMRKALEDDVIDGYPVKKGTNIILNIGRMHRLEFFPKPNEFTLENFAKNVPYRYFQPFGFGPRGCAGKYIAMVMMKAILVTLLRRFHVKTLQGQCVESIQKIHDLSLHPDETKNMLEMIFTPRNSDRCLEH

[4] = tested on: Radical scavenging activity; test: Antioxidant activity assessed as DPPH radical scavenging activity; format: functional
HCT-116 [5] = test: Cytotoxicity against human p53-positive HCT116 cells assessed as cell viability after 24 hrs by MTT assay; format: functional, cell-based; details: HCT-116, 24 h

SMILES | Activity (HCT-116 [1]) | viability at 200 µM (HL-60 [2]) [%] | viability at 40 µM (HL-60 [3]) [%] | Activity (Steinernema feltiae) | IC50 (Aromatase) [µM] | IC50 [4] [µM] | IC50 (HCT-116 [5]) [µM]
COc1ccc2c(c1)N[C@H]1c3ccc(O)cc3OC[C@@H]21 (racemic) | inactive | 27 | 72 | inactive | > 300 | > 300 | –
COc1ccc2c3c([nH]c2c1)-c1ccc(O)cc1OC3 | – | – | – | – | – | – | 66.1
